In one data set the test system is Monocyte. The experiment in a line: Inhibition of LPS-induced TNFalpha production in human monocytes. It counts as functional, cell-based.
Data set [1] is described as follows: Hepatocyte extraction ratio in human. As to conditions: hepatocytes. Type of data set: ADME, cell-based.
Data set [2] has as its target Mitogen-activated protein kinase 14 (Homo sapiens, UniProt Q16539). Kind of data set: Inhibition of p38alpha.
For the next data set, the species on record is Homo sapiens. Kind of data set: Inhibition of LPS-induced TNFalpha production in human whole blood. Type of data set: functional, organism-based.
The nature of data set [3]: Permeability from apical to basolateral side of Caco-2 cell membrane. It counts as ADME, cell-based. As to conditions: human.
Data set [4] is described as follows: Permeability from basolateral to apical side of Caco-2 cell membrane. It counts as ADME, cell-based. The following applies: human.
The nature of data set [5]: Solubility in PBS buffer at ph 6.5. Type of data set: physicochemical.
The nature of data set [6]: Volume of distribution in rat. Type of data set: ADME, organism-based. The following applies: in vivo, read-out: Vdss.
Data set [7] is described as follows: Half life in rat. The following applies: in vivo. It counts as ADME, organism-based.
A short description of data set [8]: Bioavailability in rat. It counts as ADME, organism-based. The following applies: in vivo.
Data set [9] can be described thus: Plasma clearance in monkey. It counts as ADME, organism-based, Macaca mulatta. The following applies: rhesus monkey.
Data set [10] is described as follows: Volume of distribution in monkey. It counts as ADME, organism-based, Macaca mulatta. The following applies: rhesus monkey, in vivo; read-out: Vdss.
A short description of data set [11]: Half life in monkey. The following applies: rhesus monkey, in vivo. Type of data set: ADME, organism-based, Macaca mulatta.
Data set [12] is described as follows: Bioavailability in monkey. It counts as ADME, organism-based, Macaca mulatta. As to conditions: rhesus monkey, in vivo.
The species named for the next data set is Rattus norvegicus. Kind of data set: Inhibition of LPS-induced TNFalpha release in rat. It counts as functional.
A short description of data set [13]: Plasma clearance in rat. It counts as ADME, organism-based.
Data set [14] is described as follows: Hepatocyte microsomal extraction ratio in human. The following applies: hepatic microsomes.

Values after ≈ are worked out from the molar mass of the structure shown. Bounds are passed on as bounds.

Experimental findings from ChEMBL document CHEMBL1145312, “Structure-activity relationships of triazolopyridine oxazole p38 inhibitors: identification of candidates for clinical development” (Bioorg Med Chem Lett, 2006) are described below.

Mitogen-activated protein kinase 14, sequence (Q16539 whole entry): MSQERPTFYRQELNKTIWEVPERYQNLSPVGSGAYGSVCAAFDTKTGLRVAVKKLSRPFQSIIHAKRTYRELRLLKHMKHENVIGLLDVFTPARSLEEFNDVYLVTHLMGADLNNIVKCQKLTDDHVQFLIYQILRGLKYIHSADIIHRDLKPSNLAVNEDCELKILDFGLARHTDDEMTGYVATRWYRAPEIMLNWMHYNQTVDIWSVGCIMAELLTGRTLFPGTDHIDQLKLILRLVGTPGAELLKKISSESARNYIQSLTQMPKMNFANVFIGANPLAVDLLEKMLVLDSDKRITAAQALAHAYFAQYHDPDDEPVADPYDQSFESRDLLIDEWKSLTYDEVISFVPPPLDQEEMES

As to `CCOc1ccccc1-c1nnc2ccc(-c3ocnc3-c3ccc(F)cc3)cn12`, the IC50 stood at 10 nM in the data set on Monocyte, 0.4 nM in data set [2] and 697 nM in the data set listed under Homo sapiens. In [1], the hepatic extraction ratio was > 0.5.
The corresponding values for `CC1(c2nnc3ccc(-c4ocnc4-c4ccc(F)cc4F)cn23)CC1` are 30 nM, 0.7 nM, 245 nM and > 0.5.
For `Fc1ccc(-c2ncoc2-c2ccc3nnc(C4CC4)n3c2)cc1`, in that order: 186 nM, 10.9 nM, 4650 nM and > 0.5.
`CC(C)c1nnc2ccc(-c3[nH]cnc3-c3cc(F)ccc3F)cn12`: the half-maximal inhibitory concentration (IC50) came to 24.5 nM in the data set on Monocyte, 6.2 nM in data set [2] and 297 nM in the data set listed under Homo sapiens. The compound further displayed a Papp A→B in data set [3] of 1 ×10⁻⁶ cm/s. This compound also displayed a Papp B→A in data set [4] of 32 ×10⁻⁶ cm/s.
`CC(C)c1nnc2ccc(-c3ocnc3-c3ccc(F)c(Cl)c3)cn12` registered a solubility in [5] of 2.8 µg/mL (≈ 7.85 µM). In addition, the half-maximal inhibitory concentration (IC50) in the data set on Monocyte worked out at 47.2 nM; in [2], 12.4 nM; in the data set listed under Homo sapiens, 631 nM. The Vd came to 1.3 L/kg in data set [6] and 1.4 L/kg in data set [10]. The half-life in [7] is 0.9 h; in data set [11] it was 4.7 h. Also, the bioavailability in data set [8] came out at 9.4%; in [12], 31%. Further, the clearance was 5.7 mL/min/kg in data set [9] and 17 mL/min/kg in [13]. In the data set listed under Rattus norvegicus, this compound yielded an ED50 of 0.5 mg/kg.
With `CC(C)c1nnc2ccc(-c3ocnc3-c3ccc(Cl)cc3F)cn12`, the hepatic extraction ratio is < 0.3 in data set [14] and > 0.5 in data set [1]. Also, the IC50 in the data set with Monocyte was 20 nM; in data set [2], 2.2 nM; in the data set listed under Homo sapiens, 600 nM.
As for `Fc1ccc(-c2ncoc2-c2ccc3nnc(-c4ccccc4)n3c2)cc1`, the results for the IC50 (in the data set on Monocyte; in data set [2]; in the data set listed under Homo sapiens) were 90 nM, 12.3 nM and 5350 nM, respectively. The hepatic extraction ratio in data set [1] was > 0.5.
`CC(C)c1nnc2ccc(-c3cnoc3-c3cc(F)ccc3F)cn12`: the IC50 with Monocyte came out at 63 nM; in data set [2] it was 33.2 nM. The same compound yielded a Papp A→B in data set [3] of 41 ×10⁻⁶ cm/s. In data set [4], this compound returned a Papp B→A of 29 ×10⁻⁶ cm/s.

What is called IC50 is the concentration that gives 50% inhibition. As usually defined, the Papp A→B is how fast a substance crosses the layer from the apical side. By Papp B→A is commonly meant the apparent permeability from the basolateral to the apical side of a cell layer. The term solubility denotes how much of the substance goes into solution per volume. For orientation: half-life means how long it takes for the measured level to halve. As a reminder, the bioavailability is dose-corrected exposure relative to a reference, in per cent. Broadly, the clearance is the volume of plasma or blood freed of the substance per unit of time. For orientation: ED50 means the dose at which the effect has come halfway, by size or by number of responders.
